# Test results taken from US20230406885A1, “CYCLIC PEPTIDES FOR TRAPPING INTERLEUKIN-1 BETA” (MERCK SHARP & DOHME LLC, priority 2022, published 2023).
# Where a SMILES comes first, the peptide text is derived from it. [ ]: non-standard residue; d: D form. Trp(4-Cl)(βS-Me) = C[C@@H](c1c[nH]c2cccc(Cl)c12)[C@H](N)C(=O)O; Trp(βS-Me,4-F) = C[C@@H](c1c[nH]c2cccc(F)c12)[C@H](N)C(=O)O; Bip(4'-COOH) = N[C@@H](Cc1ccc(-c2ccc(C(=O)O)cc2)cc1)C(=O)O; Phe(4-COOH) = N[C@@H](Cc1ccc(C(=O)O)cc1)C(=O)O; Phe(4-CH2NH2) = NCc1ccc(C[C@H](N)C(=O)O)cc1; Phe(4-NH2) = Nc1ccc(C[C@H](N)C(=O)O)cc1; Pro(4R-NH2) = N[C@H]1CN[C@H](C(=O)O)C1; hTyr = N[C@@H](CCc1ccc(O)cc1)C(=O)O; h4Pal = N[C@@H](CCc1ccncc1)C(=O)O; 4Pal = N[C@@H](Cc1ccncc1)C(=O)O; Aad = N[C@@H](CCCC(=O)O)C(=O)O; hLys = NCCCCC[C@H](N)C(=O)O; dDab = NCC[C@@H](N)C(=O)O; dNMeA = CN[C@H](C)C(=O)O; Dap = NC[C@H](N)C(=O)O
# Molecular target: T1, Recombinant human IL-1β (Homo sapiens, UniProt P01584)
# T1 construct: purchased BioLegend 579404
# T1 sequence (P01584 117-269): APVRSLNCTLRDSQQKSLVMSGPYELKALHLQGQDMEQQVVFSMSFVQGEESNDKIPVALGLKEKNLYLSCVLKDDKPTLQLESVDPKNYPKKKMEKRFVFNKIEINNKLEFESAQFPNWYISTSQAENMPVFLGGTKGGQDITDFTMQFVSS
# Experiment: IL-6 assay in MRC5 cells: inhibition of IL-1β induced IL-6 secretion (AlphaLISA)
# Format: cell-based
# Settings: inhibition of IL-1β induced IL-6 secretion in MRC5 cells; IL-1β pre-incubated 1 hour with compound; read-out: MRC5 IC50
# In short: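 IL-1β at 2×EC80 in seeding medium (EMEM, 0.025% BSA) preincubated 1 h at ambient temperature with compound, then 3000 MRC5 cells/well added and incubated overnight at 37 °C, 5% CO2. IL-6 in conditioned medium quantified by AlphaLISA; IC50 from 4-parameter logistic fit.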
row,Structure (SMILES),IC50 [nM]
1,C[C@@H]1C(=O)NCC(=O)N[C@@H](Cc2ccc(-c3ccc(C(=O)O)cc3)cc2)C(=O)N[C@@H](Cc2ccc(CN)cc2)C(=O)N[C@@H](CO)C(=O)N[C@H](C)C(=O)N[C@@H](CCc2ccc(O)cc2)C(=O)N[C@@H](Cc2ccc(-c3ccc(C(=O)O)cc3)cc2)C(=O)N[C@@H](Cc2c[nH]c3ccccc23)C(=O)N[C@@H](Cc2ccc(C(=O)O)cc2)C(=O)NCC(=O)N2C[C@H](N)C[C@H]2C(=O)N[C@@H]([C@@H](C)c2c[nH]c3cccc(Cl)c23)C(=O)N[C@@H](CC(=O)O)C(=O)N1C [Example 51] (cyclo([Bip(4'-COOH)]W[Phe(4-COOH)]G[Pro(4R-NH2)][Trp(4-Cl)(βS-Me)]D[dNMeA]G[Bip(4'-COOH)][Phe(4-CH2NH2)]S[dA][hTyr])),0.32
2,C[C@@H]1C(=O)NCC(=O)N[C@@H](Cc2ccc(-c3ccc(C(=O)O)cc3)cc2)C(=O)N[C@@H](Cc2ccc(N)cc2)C(=O)N[C@@H](CO)C(=O)N[C@H](C)C(=O)N[C@@H](CCc2ccc(O)cc2)C(=O)N[C@@H](Cc2ccc(-c3ccc(C(=O)O)cc3)cc2)C(=O)N[C@@H](Cc2c[nH]c3ccccc23)C(=O)N[C@@H](Cc2ccc(C(=O)O)cc2)C(=O)NCC(=O)N2C[C@H](N)C[C@H]2C(=O)N[C@@H]([C@@H](C)c2c[nH]c3cccc(Cl)c23)C(=O)N[C@@H](CC(=O)O)C(=O)N1C [Example 52] (cyclo([Bip(4'-COOH)]W[Phe(4-COOH)]G[Pro(4R-NH2)][Trp(4-Cl)(βS-Me)]D[dNMeA]G[Bip(4'-COOH)][Phe(4-NH2)]S[dA][hTyr])),0.454
3,C[C@@H]1C(=O)NCC(=O)N[C@@H](Cc2ccc(-c3ccc(C(=O)O)cc3)cc2)C(=O)N[C@@H](Cc2c[nH]c3ccccc23)C(=O)N[C@@H](CN)C(=O)N[C@H](C)C(=O)N[C@@H](CCc2ccc(O)cc2)C(=O)N[C@@H](Cc2ccc(-c3ccc(C(=O)O)cc3)cc2)C(=O)N[C@@H](Cc2c[nH]c3ccccc23)C(=O)N[C@@H](Cc2ccc(C(=O)O)cc2)C(=O)NCC(=O)N2C[C@H](N)C[C@H]2C(=O)N[C@@H]([C@@H](C)c2c[nH]c3cccc(Cl)c23)C(=O)N[C@@H](CC(=O)O)C(=O)N1C [Example 53] (cyclo([Bip(4'-COOH)]W[Phe(4-COOH)]G[Pro(4R-NH2)][Trp(4-Cl)(βS-Me)]D[dNMeA]G[Bip(4'-COOH)]W[Dap][dA][hTyr])),0.0418
4,"CC(C)C[C@@H]1NC(=O)[C@H](CCCCN)NC(=O)[C@H](Cc2ccc(-c3ccc(C(=O)O)cc3)cc2)NC(=O)CNC(=O)[C@@H](C)N(C)C(=O)[C@H](C)NC(=O)[C@H]([C@@H](C)c2c[nH]c3cccc(F)c23)NC(=O)[C@@H]2C[C@@H](N)CN2C(=O)CNC(=O)[C@H](Cc2ccc(C(=O)O)cc2)NC(=O)[C@H](Cc2c[nH]c3ccccc23)NC(=O)[C@H](Cc2ccc(-c3ccc(C(=O)O)cc3)cc2)NC(=O)[C@H](CCc2ccc(O)cc2)NC(=O)[C@@H](C)NC1=O [Example 58] (cyclo([Bip(4'-COOH)]W[Phe(4-COOH)]G[Pro(4R-NH2)][Trp(βS-Me,4-F)]A[dNMeA]G[Bip(4'-COOH)]KL[dA][hTyr]))",0.247
5,"CC(C)C[C@@H]1NC(=O)[C@H](Cc2ccncc2)NC(=O)[C@H](Cc2ccc(-c3ccc(C(=O)O)cc3)cc2)NC(=O)CNC(=O)[C@@H](C)N(C)C(=O)[C@H](CC(=O)O)NC(=O)[C@H]([C@@H](C)c2c[nH]c3cccc(F)c23)NC(=O)[C@@H]2C[C@@H](N)CN2C(=O)CNC(=O)[C@H](Cc2ccc(C(=O)O)cc2)NC(=O)[C@H](Cc2c[nH]c3ccccc23)NC(=O)[C@H](Cc2ccc(-c3ccc(C(=O)O)cc3)cc2)NC(=O)[C@H](CCc2ccc(O)cc2)NC(=O)[C@@H](C)NC1=O [Example 59] (cyclo([Bip(4'-COOH)]W[Phe(4-COOH)]G[Pro(4R-NH2)][Trp(βS-Me,4-F)]D[dNMeA]G[Bip(4'-COOH)][4Pal]L[dA][hTyr]))",0.0362
6,"CC(C)C[C@@H]1NC(=O)[C@H](CCCC(N)=O)NC(=O)[C@H](Cc2ccc(-c3ccc(C(=O)O)cc3)cc2)NC(=O)CNC(=O)[C@@H](C)N(C)C(=O)[C@H](CC(=O)O)NC(=O)[C@H]([C@@H](C)c2c[nH]c3cccc(F)c23)NC(=O)[C@@H]2C[C@@H](N)CN2C(=O)CNC(=O)[C@H](Cc2ccc(C(=O)O)cc2)NC(=O)[C@H](Cc2c[nH]c3ccccc23)NC(=O)[C@H](Cc2ccc(-c3ccc(C(=O)O)cc3)cc2)NC(=O)[C@H](CCc2ccc(O)cc2)NC(=O)[C@@H](C)NC1=O [Example 63] (cyclo([Bip(4'-COOH)]W[Phe(4-COOH)]G[Pro(4R-NH2)][Trp(βS-Me,4-F)]D[dNMeA]G[Bip(4'-COOH)][Aad](NH2)L[dA][hTyr]))",0.0629

# Further compounds by falling IC50, results first:
row,IC50 [nM],Structure (SMILES)
1,0.312,"CC(C)C[C@@H]1NC(=O)[C@H](CCc2ccncc2)NC(=O)[C@H](Cc2ccc(-c3ccc(C(=O)O)cc3)cc2)NC(=O)CNC(=O)[C@@H](C)N(C)C(=O)[C@H](CC(=O)O)NC(=O)[C@H]([C@@H](C)c2c[nH]c3cccc(F)c23)NC(=O)[C@@H]2C[C@@H](N)CN2C(=O)CNC(=O)[C@H](Cc2ccc(C(=O)O)cc2)NC(=O)[C@H](Cc2c[nH]c3ccccc23)NC(=O)[C@H](Cc2ccc(-c3ccc(C(=O)O)cc3)cc2)NC(=O)[C@H](CCc2ccc(O)cc2)NC(=O)[C@@H](C)NC1=O [Example 61] (cyclo([Bip(4'-COOH)]W[Phe(4-COOH)]G[Pro(4R-NH2)][Trp(βS-Me,4-F)]D[dNMeA]G[Bip(4'-COOH)][h4Pal]L[dA][hTyr]))"
2,0.283,"CC(C)C[C@@H]1NC(=O)[C@H](CCCCCN)NC(=O)[C@H](Cc2ccc(-c3ccc(C(=O)O)cc3)cc2)NC(=O)CNC(=O)[C@@H](C)N(C)C(=O)[C@H](CC(=O)O)NC(=O)[C@H]([C@@H](C)c2c[nH]c3cccc(F)c23)NC(=O)[C@@H]2C[C@@H](N)CN2C(=O)CNC(=O)[C@H](Cc2ccc(C(=O)O)cc2)NC(=O)[C@H](Cc2c[nH]c3ccccc23)NC(=O)[C@H](Cc2ccc(-c3ccc(C(=O)O)cc3)cc2)NC(=O)[C@H](CCc2ccc(O)cc2)NC(=O)[C@@H](C)NC1=O [Example 62] (cyclo([Bip(4'-COOH)]W[Phe(4-COOH)]G[Pro(4R-NH2)][Trp(βS-Me,4-F)]D[dNMeA]G[Bip(4'-COOH)][hLys]L[dA][hTyr]))"
3,0.0873,C[C@@H]1C(=O)NCC(=O)N[C@@H](Cc2ccc(-c3ccc(C(=O)O)cc3)cc2)C(=O)N[C@@H](Cc2c[nH]c3ccccc23)C(=O)NCC(=O)N[C@H](CCN)C(=O)N[C@@H](CCc2ccc(O)cc2)C(=O)N[C@@H](Cc2ccc(-c3ccc(C(=O)O)cc3)cc2)C(=O)N[C@@H](Cc2c[nH]c3ccccc23)C(=O)N[C@@H](Cc2ccc(C(=O)O)cc2)C(=O)NCC(=O)N2C[C@H](N)C[C@H]2C(=O)N[C@@H]([C@@H](C)c2c[nH]c3cccc(Cl)c23)C(=O)N[C@@H](CCC(N)=O)C(=O)N1C [Example 57] (cyclo([Bip(4'-COOH)]W[Phe(4-COOH)]G[Pro(4R-NH2)][Trp(4-Cl)(βS-Me)]Q[dNMeA]G[Bip(4'-COOH)]WG[dDab][hTyr]))
4,0.0692,C[C@@H]1C(=O)NCC(=O)N[C@@H](Cc2ccc(-c3ccc(C(=O)O)cc3)cc2)C(=O)N[C@@H](Cc2c[nH]c3ccccc23)C(=O)NCC(=O)N[C@H](CCN)C(=O)N[C@@H](CCc2ccc(O)cc2)C(=O)N[C@@H](Cc2ccc(-c3ccc(C(=O)O)cc3)cc2)C(=O)N[C@@H](Cc2c[nH]c3ccccc23)C(=O)N[C@@H](Cc2ccc(C(=O)O)cc2)C(=O)NCC(=O)N2C[C@H](N)C[C@H]2C(=O)N[C@@H]([C@@H](C)c2c[nH]c3cccc(Cl)c23)C(=O)N[C@@H](CC(=O)O)C(=O)N1C [Example 54] (cyclo([Bip(4'-COOH)]W[Phe(4-COOH)]G[Pro(4R-NH2)][Trp(4-Cl)(βS-Me)]D[dNMeA]G[Bip(4'-COOH)]WG[dDab][hTyr]))
5,0.0689,"CC(C)C[C@@H]1NC(=O)[C@H](Cc2ccccc2)NC(=O)[C@H](Cc2ccc(-c3ccc(C(=O)O)cc3)cc2)NC(=O)CNC(=O)[C@@H](C)N(C)C(=O)[C@H](CC(=O)O)NC(=O)[C@H]([C@@H](C)c2c[nH]c3cccc(F)c23)NC(=O)[C@@H]2C[C@@H](N)CN2C(=O)CNC(=O)[C@H](Cc2ccc(C(=O)O)cc2)NC(=O)[C@H](Cc2c[nH]c3ccccc23)NC(=O)[C@H](Cc2ccc(-c3ccc(C(=O)O)cc3)cc2)NC(=O)[C@H](CCc2ccc(O)cc2)NC(=O)[C@@H](C)NC1=O [Example 60] (cyclo([Bip(4'-COOH)]W[Phe(4-COOH)]G[Pro(4R-NH2)][Trp(βS-Me,4-F)]D[dNMeA]G[Bip(4'-COOH)]FL[dA][hTyr]))"
6,0.0493,C[C@@H]1C(=O)NCC(=O)N[C@@H](Cc2ccc(-c3ccc(C(=O)O)cc3)cc2)C(=O)N[C@@H](Cc2c[nH]c3ccccc23)C(=O)NCC(=O)N[C@H](CCN)C(=O)N[C@@H](CCc2ccc(O)cc2)C(=O)N[C@@H](Cc2ccc(-c3ccc(C(=O)O)cc3)cc2)C(=O)N[C@@H](Cc2c[nH]c3ccccc23)C(=O)N[C@@H](Cc2ccc(C(=O)O)cc2)C(=O)NCC(=O)N2C[C@H](N)C[C@H]2C(=O)N[C@@H]([C@@H](C)c2c[nH]c3cccc(Cl)c23)C(=O)N[C@@H](CCC(=O)O)C(=O)N1C [Example 55] (cyclo([Bip(4'-COOH)]W[Phe(4-COOH)]G[Pro(4R-NH2)][Trp(4-Cl)(βS-Me)]E[dNMeA]G[Bip(4'-COOH)]WG[dDab][hTyr]))
7,0.0207,C[C@@H]1C(=O)NCC(=O)N[C@@H](Cc2ccc(-c3ccc(C(=O)O)cc3)cc2)C(=O)N[C@@H](Cc2c[nH]c3ccccc23)C(=O)NCC(=O)N[C@H](CCN)C(=O)N[C@@H](CCc2ccc(O)cc2)C(=O)N[C@@H](Cc2ccc(-c3ccc(C(=O)O)cc3)cc2)C(=O)N[C@@H](Cc2c[nH]c3ccccc23)C(=O)N[C@@H](Cc2ccc(C(=O)O)cc2)C(=O)NCC(=O)N2C[C@H](N)C[C@H]2C(=O)N[C@@H]([C@@H](C)c2c[nH]c3cccc(Cl)c23)C(=O)N[C@@H](CC(N)=O)C(=O)N1C [Example 56] (cyclo([Bip(4'-COOH)]W[Phe(4-COOH)]G[Pro(4R-NH2)][Trp(4-Cl)(βS-Me)]N[dNMeA]G[Bip(4'-COOH)]WG[dDab][hTyr]))
